Reference: US8952024B2, “Herbicidal pyrimidone derivatives” (E I du Pont de Nemours and Company, priority 2009, dated 2015)

Tests used:
Format in all cases: in vivo
rice (Oryza sativa) = assay: Test B flooded paddy test; conditions: for Plant response rating, Flood, Rice: 250 g ai/ha, flooded paddy test, visual rating on 0 to 100 scale (0 no effect, 100 complete control) after 13 to 15 days; for Plant response rating, Rice: Flood (flooded paddy test), 13 to 15 days
In short: (§1)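 Seedlings reaching 2 leaves are flooded 3 cm deep; test material is delivered to that water, which stays at the same depth. Plants remain in a greenhouse 13–15 days and are then scored by eye versus controls from 0 to 100.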

[1] = system: ducksalad (Heteranthera limosa); assay: Test B flooded paddy test; conditions: for Plant response rating, Flood, Ducksalad: 250 g ai/ha, flooded paddy test, visual rating on 0 to 100 scale (0 no effect, 100 complete control) after 13 to 15 days; for Plant response rating, Ducksalad: Flood (flooded paddy test), 13 to 15 days
In short: as §1

[2] = system: umbrella sedge (Cyperus difformis); assay: Test B flooded paddy test; conditions: for Plant response rating, Flood, Sedge, Umbrella: 250 g ai/ha, flooded paddy test, visual rating on 0 to 100 scale (0 no effect, 100 complete control) after 13 to 15 days; for Plant response rating, Sedge, Umbrella: Flood (flooded paddy test), 13 to 15 days
In short: as §1

[3] = system: barnyardgrass (Echinochloa crus-galli); assay: Test B flooded paddy test; conditions: for Plant response rating, Flood, Barnyardgrass: 250 g ai/ha, flooded paddy test, visual rating on 0 to 100 scale (0 no effect, 100 complete control) after 13 to 15 days; for Plant response rating, Barnyardgrass: Flood (flooded paddy test), 13 to 15 days
In short: as §1

[4] = system: morningglory (Ipomoea spp.); assay: Test A pre-/postemergence plant response
In short: (§2)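 Plants grown from seed in a loam soil and sand mix received test compounds both as a preemergence soil spray and, at the same time, as a postemergence spray at the one- to two-leaf stage. Injury was judged visually against untreated controls roughly ten days later, 0 meaning no effect and 100 complete control.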

[5] = system: wheat (Triticum aestivum); assay: Test A pre-/postemergence plant response
In short: as §2

corn (Zea mays) = assay: Test A pre-/postemergence plant response
In short: as §2

[6] = system: velvetleaf (Abutilon theophrasti); assay: Test A pre-/postemergence plant response
In short: as §2

[7] = system: barnyardgrass (Echinochloa crus-galli); assay: Test A pre-/postemergence plant response
In short: as §2

[8] = system: giant foxtail (Setaria faberii); assay: Test A pre-/postemergence plant response
In short: as §2

[9] = system: large crabgrass (Digitaria sanguinalis); assay: Test A pre-/postemergence plant response
In short: as §2

[10] = system: pigweed (Amaranthus retroflexus); assay: Test A pre-/postemergence plant response
In short: as §2

[11] = system: winter barley (Hordeum vulgare); assay: Test B postemergence plant response
In short: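 Visual ratings from 0 (no effect) to 100 (complete control), made against controls 13–15 days after treatment, kept in a greenhouse. Compounds were applied postemergence to potted plants at the 1- to 4-leaf stage (2–18 cm).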

[12] = 31 g ai/ha, scale of 0 to 100 where 0 is no effect and 100 is complete control
[13] = 62 g ai/ha, scale of 0 to 100 where 0 is no effect and 100 is complete control
[14] = 125 g ai/ha, scale 0 to 100, 0 is no effect, 100 is complete control
[15] = Postemergence, 125 g ai/ha, visual injury, 0 to 100 scale (0 no effect, 100 complete control), approx. ten days
[16] = Postemergence, 500 g ai/ha, 0 to 100 scale, 0 = no effect, 100 = complete control, approx. ten days
[17] = Preemergence, 125 g ai/ha, 0 to 100 scale, 0 = no effect, 100 = complete control
[18] = Preemergence, 500 g ai/ha, visual injury, 0 to 100 scale (0 no effect, 100 complete control), approx. ten days
[19] = 31 g ai/ha, postemergence, scale 0 to 100, 0 is no effect, 100 is complete control
[20] = Postemergence, 250 g ai/ha, scale 0 to 100 (0 no effect, 100 complete control)
[21] = Flood, 31 g ai/ha, scale 0 to 100 (0 no effect, 100 complete control)

In the case of `O=C1CCCC(O)=C1C(=O)c1cnc(-c2cccc(Cl)c2)n(-c2ccc(Cl)cc2)c1=O` [Compound 64], the “Plant response rating, Flood, Rice” value (rice (Oryza sativa)) is reported as 0, the “Plant response rating, Rice” value (rice (Oryza sativa); [12]) is reported as 0 and the “Plant response rating, Rice” value (rice (Oryza sativa); [13]) is reported as 0. For the same compound, the “Plant response rating, Rice” value (rice (Oryza sativa); [14]) was 0, the “Plant response rating, Flood, Ducksalad” value [1] was 60 and the “Plant response rating, Ducksalad” value [1, 12] was 30. For the same compound, the “Plant response rating, Ducksalad” value [1, 13] was 30, the “Plant response rating, Ducksalad” value [1, 14] was 50 and the “Plant response rating, Flood, Sedge, Umbrella” value [2] was 40. For the same compound, the “Plant response rating, Sedge, Umbrella” value [2, 12] was 0, the “Plant response rating, Sedge, Umbrella” value [2, 13] was 0 and the “Plant response rating, Sedge, Umbrella” value [2, 14] was 0. The “Plant response rating, Flood, Barnyardgrass” value [3] was 0, the “Plant response rating, Barnyardgrass” value [3, 12] was 0 and the “Plant response rating, Barnyardgrass” value [3, 13] was 0. For the same compound, the “Plant response rating, Barnyardgrass” value [3, 14] was 0, the “Morningglory plant response rating” value [4, 15] was 90 and the “Plant response rating, Morningglory” value [4, 16] was 100. For the same compound, the “Plant response rating, Morningglory” value [4, 17] was 0, the “Plant response rating, Morningglory” value [4, 18] was 0 and the “Wheat plant response rating” value [5, 15] was 0. The “Plant response rating, Wheat” value [5, 16] was 30, the “Plant response rating, Wheat” value [5, 17] was 0 and the “Plant response rating, Wheat” value [5, 18] was 0. For the same compound, the “Corn plant response rating” value (corn (Zea mays); [15]) was 0, the “Plant response rating, Corn” value (corn (Zea mays); [16]) was 60 and the “Plant response rating, Corn” value (corn (Zea mays); [17]) was 0. The “Plant response rating, Corn” value (corn (Zea mays); [18]) was 0, the “Velvetleaf plant response rating” value [6, 15] was 100 and the “Plant response rating, Velvetleaf” value [6, 16] was 100. For the same compound, the “Plant response rating, Velvetleaf” value [6, 17] was 60, the “Plant response rating, Velvetleaf” value [6, 18] was 90 and the “Barnyardgrass plant response rating” value [7, 15] was 50. For the same compound, the “Plant response rating, Barnyardgrass” value [7, 16] was 90, the “Plant response rating, Barnyardgrass” value [7, 17] was 10 and the “Plant response rating, Barnyardgrass” value [7, 18] was 90. The “Foxtail, Giant plant response rating” value [8, 15] was 60, the “Plant response rating, Foxtail, Giant” value [8, 16] was 80 and the “Plant response rating, Foxtail, Giant” value [8, 17] was 50. For the same compound, the “Plant response rating, Foxtail, Giant” value [8, 18] was 70, the “Crabgrass, Large plant response rating” value [9, 15] was 80 and the “Plant response rating, Crabgrass, Large” value [9, 16] was 90. For the same compound, the “Plant response rating, Crabgrass, Large” value [9, 17] was 80, the “Plant response rating, Crabgrass, Large” value [9, 18] was 90 and the “Pigweed plant response rating” value [10, 15] was 90. For the same compound, the “Plant response rating, Pigweed” value [10, 16] was 100, the “Plant response rating, Pigweed” value [10, 17] was 80 and the “Plant response rating, Pigweed” value [10, 18] was 100. The “Plant response rating, Barley” value [11, 19] was 15 and the “Plant response rating, Barley” value [11, 20] was 35.
`CCCCc1ncc(C(=O)C2=C(O)CCCC2=O)c(=O)n1-c1ccc(C)cc1` [Compound 67] was tested, and the “Plant response rating, Flood, Rice” value (rice (Oryza sativa)) was 0, the “Plant response rating, Rice” value (rice (Oryza sativa); [13]) was 0 and the “Plant response rating, Rice” value (rice (Oryza sativa); [14]) was 0. For the same compound, the “Rice plant response rating” value (rice (Oryza sativa); [21]) was 0, the “Plant response rating, Flood, Ducksalad” value [1] was 0 and the “Plant response rating, Ducksalad” value [1, 13] was 0. For the same compound, the “Plant response rating, Ducksalad” value [1, 14] was 0, the “Ducksalad plant response rating” value [1, 21] was 0 and the “Plant response rating, Flood, Sedge, Umbrella” value [2] was 0. For the same compound, the “Plant response rating, Sedge, Umbrella” value [2, 13] was 0, the “Plant response rating, Sedge, Umbrella” value [2, 14] was 0 and the “Sedge, Umbrella plant response rating” value [2, 21] was 0. For the same compound, the “Plant response rating, Flood, Barnyardgrass” value [3] was 0, the “Plant response rating, Barnyardgrass” value [3, 13] was 0 and the “Plant response rating, Barnyardgrass” value [3, 14] was 0. For the same compound, the “Barnyardgrass plant response rating” value [3, 21] was 0, the “Morningglory plant response rating” value [4, 15] was 100 and the “Plant response rating, Morningglory” value [4, 16] was 100. For the same compound, the “Plant response rating, Morningglory” value [4, 17] was 30, the “Plant response rating, Morningglory” value [4, 18] was 50 and the “Wheat plant response rating” value [5, 15] was 20. For the same compound, the “Plant response rating, Wheat” value [5, 16] was 30, the “Plant response rating, Wheat” value [5, 17] was 0 and the “Plant response rating, Wheat” value [5, 18] was 0. The “Plant response rating, Corn” value (corn (Zea mays); [16]) was 10, the “Plant response rating, Corn” value (corn (Zea mays); [17]) was 0 and the “Plant response rating, Corn” value (corn (Zea mays); [18]) was 0. For the same compound, the “Velvetleaf plant response rating” value [6, 15] was 100, the “Plant response rating, Velvetleaf” value [6, 16] was 100 and the “Plant response rating, Velvetleaf” value [6, 17] was 70. The “Plant response rating, Velvetleaf” value [6, 18] was 80, the “Barnyardgrass plant response rating” value [7, 15] was 70 and the “Plant response rating, Barnyardgrass” value [7, 16] was 90. The “Plant response rating, Barnyardgrass” value [7, 17] was 0, the “Plant response rating, Barnyardgrass” value [7, 18] was 40 and the “Foxtail, Giant plant response rating” value [8, 15] was 30. For the same compound, the “Plant response rating, Foxtail, Giant” value [8, 16] was 60, the “Plant response rating, Foxtail, Giant” value [8, 18] was 50 and the “Crabgrass, Large plant response rating” value [9, 15] was 60. For the same compound, the “Plant response rating, Crabgrass, Large” value [9, 16] was 90, the “Plant response rating, Crabgrass, Large” value [9, 17] was 30 and the “Plant response rating, Crabgrass, Large” value [9, 18] was 90. For the same compound, the “Pigweed plant response rating” value [10, 15] was 100, the “Plant response rating, Pigweed” value [10, 16] was 100 and the “Plant response rating, Pigweed” value [10, 17] was 90. The “Plant response rating, Pigweed” value [10, 18] was 90, the “Plant response rating, Barley” value [11, 19] was 0 and the “Barley plant response rating (0 to 100 scale)” value ([11]; 62 g ai/ha, postemergence, 0 is no effect, 100 is complete control, 13 to 15 days) was 5. The “Plant response rating, Barley” value ([11]; Postemergence, 125 g ai/ha, visual rating after 13 to 15 days, scale 0 (no effect) to 100 (complete control)) was 20 and the “Plant response rating, Barley” value [11, 20] was 30.
